Test results from patent US5180742A, “Quinone derivatives, their production and use” (Takeda Chemical Industries, Ltd., priority 1984, dated 1993).

test system: PAF-induced bronchoconstriction; assay: Effect on PAF-induced bronchoconstriction in guinea pigs; type: in vivo; conditions: 0.31 mg/kg oral, one hour before PAF
Method: Platelet Activating Factor (PAF)-Induced Bronchoconstriction in Guinea Pigs
Experimental procedure in this experiment was the same as that in LTD4 -induced bronchoconstriction shown in Experimental example 7. PAF is an intraveneous dose of 1 μg/kg was used. Each specimen suspended in a 5% gum arabic solution was given orally one hour before the PAF administration.

| SMILES | % Inhibition of PAF-induced bronchoconstriction [%] |
| --- | --- |
| CC1=C(C)C(=O)C(C(CCCCCC(N)=O)c2ccccc2)=C(C)C1=O (stereo not drawn) [compound 146, 7-(3,5,6-trimethyl-1,4-benzoquinon-2-yl)-7-phenylheptanamide] | 49.7 |

same assay, conditions: 1.25 mg/kg oral, one hour before PAF

| SMILES | % Inhibition of PAF-induced bronchoconstriction [%] |
| --- | --- |
| CC1=C(C)C(=O)C(C(CCCCCC(N)=O)c2ccccc2)=C(C)C1=O (stereo not drawn) [compound 146, 7-(3,5,6-trimethyl-1,4-benzoquinon-2-yl)-7-phenylheptanamide] | 80.3 |

same assay, conditions: 5 mg/kg oral, one hour before PAF

| SMILES | % Inhibition of PAF-induced bronchoconstriction [%] |
| --- | --- |
| CC1=C(C)C(=O)C(C(CCCCCC(N)=O)c2ccccc2)=C(C)C1=O (stereo not drawn) [compound 146, 7-(3,5,6-trimethyl-1,4-benzoquinon-2-yl)-7-phenylheptanamide] | 100.0 |
| CC1=C(C)C(=O)C(C(CCCCCC(=O)N2CCN(CCc3ccccc3)CC2)c2ccccc2)=C(C)C1=O (stereo not drawn) [compound 163, 4-[7-(3,5,6-trimethyl-1,4-benzoquinon-2-yl)-7-phenylheptanoyl]-(2-phenylethyl)piperazine] | 59.9 |

test system: Immunoglobulin-G1 mediated bronchoconstriction reaction; assay: Action on immunoglobulin-G1 mediated bronchoconstriction reaction in guinea pigs; type: in vivo, Hartley guinea pigs; conditions: Cavia porcellus; 20 mg/kg oral, 1 hour before antigen
Method: Action on the Immunoglobulin-G1 Mediated Bronchoconstriction Reaction in Guinea Pigs
In accordance with the method of Orange and Moore (Orange, R. P. and Moore E. G. , J. Immunol., 116, 392-397, 1976), female and male Hartley guinea pigs weighing about 350 g were sensitized by intraperitoneal application of an emulsion (1 ml) composed of egg albumin (1 mg) and Freund's complete adjuvant (produced by Wako Pure-Chemical Industries, Ltd. of Japan). 3 Weeks after the sensitization, a serum antibody level in the sensitized guinea pigs was measured by means of the 3-hours passive cutaneous anaphylaxis (PCA) reaction in guinea pigs. […] The broncoconstriction reaction resulting from the antigen-antibody reaction was measured in accordance with the Konzett-Rossler method (Konzett, H. and Rossler, R., Naunyn-Schmiedeberg'ss Arch. exp. Path. pharmak., 195, 71-74, 1940). The guinea pigs were fixed on the dorsal position under anesthesia with a urethane (1.5 g/kg given intraperitonealy). An incision was made through the trachea, which was connected to an artificial respirator (manufactured by Harvard Co.) through an endotracheal tube, with a side tube of the endotracheal tube being attached to a brochoconstricting transducer (type 7020, manufactured by Ugobasile Co.). While an air volume per ventilation was adjusted to 5 to 7 ml and an air ventilation rate was controlled at 70 times/min., with a load pressure to the lung set at 10 cm H2 O, the overflown air volume was recorded on Rectigraphy-8S (manufactured by Sanei Sokki Inc. of Japan) through a transducer. After 1 mg/kg of gallamine triethiodide was given intravenously to the animals, 1 mg/kg of antigen, egg albumin dissolved in physiological saline, was applied intravenously to induce a brochoconstriction reaction. The bronchconstriction reaction was recorded for the period of time of 15 minutes. A drug was suspended in 5% gum arabic solution, and given orally 1 hour before the application of the antigen. Percent inhibition of the immunoglobuin G1 mediated bronchoconstriction reaction in guinea pigs are shown below in Table 3.

| SMILES | inhibition in vivo at 20 mg/kg [%] |
| --- | --- |
| CC1=C(C)C(=O)C(C(CCCCCCO)c2ccccc2)=C(C)C1=O (stereo not drawn) [Compound No. 45, 7-(3,5,6-trimethyl-1,4-benzoquinon-2-yl)-7-phenylheptanol] | 91 |
| CC1=C(C)C(=O)C(C(CCCCCCOC(N)=O)c2ccccc2)=C(C)C1=O (stereo not drawn) [compound 59] | 83 |
| COc1ccc(C(CCCCCC(=O)O)C2=C(C)C(=O)c3ccccc3C2=O)cc1 (stereo not drawn) [compound 26] | 85 |
| CC1=C(C(CCCCCCC(=O)O)c2ccccc2)C(=O)c2ccccc2C1=O (stereo not drawn) [Compound No. 14] | 78 |
| CC1=C(C(CCCCCC(=O)O)c2ccc3ccccc3c2)C(=O)c2ccccc2C1=O (stereo not drawn) [compound 27] | 81 |
| CC1=C(C(CCCCCCC(=O)O)c2ccc3c(c2)CCC3)C(=O)c2ccccc2C1=O (stereo not drawn) [compound 29] | 81 |
| CC1=C(C(CCCCCC(=O)O)c2ccccc2)C(=O)c2ccccc2C1=O (stereo not drawn) [compound 86] | 80 |
| CC1=C(C(CCCC(=O)O)c2ccccc2)C(=O)c2ccccc2C1=O (stereo not drawn) [compound 38] | 73 |
| CC1=C(C(CCCCCC(=O)O)c2ccc(F)cc2)C(=O)c2ccccc2C1=O (stereo not drawn) [compound 89] | 65 |
| CC1=C(C)C(=O)C(C(CCCCCCCO)c2ccc3c(c2)CCC3)=C(C)C1=O (stereo not drawn) [compound 76] | 89 |
| CC1=C(C)C(=O)C(C(CCCCCCC(=O)O)c2ccc3c(c2)CCC3)=C(C)C1=O (stereo not drawn) [compound 25] | 83 |
| CCCCCCC(C1=C(C)C(=O)C(C)=C(C)C1=O)c1ccccc1 (stereo not drawn) [compound 49] | 84 |
| CC1=C(C)C(=O)C(C(CCCCCCC(=O)O)c2ccccc2)=C(C)C1=O (stereo not drawn) [Compound No. 9, 8-phenyl-8-(3,5,6-trimethyl-1,4-benzoquinon-2-yl)octanoic acid] | 71 |
| CC1=C(C(CCCCCC(=O)O)c2ccc3c(c2)CCC3)C(=O)c2ccccc2C1=O (stereo not drawn) [compound 28] | 85 |
| CC1=C(C(CCCCC(=O)O)c2ccccc2)C(=O)c2ccccc2C1=O (stereo not drawn) [Compound No. 12] | 78 |
| CC1=C(C)C(=O)C(C(CCCCC(=O)O)c2ccccc2)=C(C)C1=O (stereo not drawn) [Compound No. 10] | 80 |

biological target: T1, 5-Lipoxygenase (Rattus norvegicus, UniProt P12527); assay: 5-Lipoxygenase inhibitory activity: 5-HETE production in RBL-1 cells (HPLC); type: cell-based, rat (RBL-1, rat basophilic leukemia cells); conditions: arachidonic acid + A 23187, 37° C., 20 minutes, read-out: 5-HETE production inhibiting effect (IC50)
T1 construct: endogenous in cells; host or cells: RBL-1 (rat basophilic leukemia cells)
T1 sequence (P12527 1-673): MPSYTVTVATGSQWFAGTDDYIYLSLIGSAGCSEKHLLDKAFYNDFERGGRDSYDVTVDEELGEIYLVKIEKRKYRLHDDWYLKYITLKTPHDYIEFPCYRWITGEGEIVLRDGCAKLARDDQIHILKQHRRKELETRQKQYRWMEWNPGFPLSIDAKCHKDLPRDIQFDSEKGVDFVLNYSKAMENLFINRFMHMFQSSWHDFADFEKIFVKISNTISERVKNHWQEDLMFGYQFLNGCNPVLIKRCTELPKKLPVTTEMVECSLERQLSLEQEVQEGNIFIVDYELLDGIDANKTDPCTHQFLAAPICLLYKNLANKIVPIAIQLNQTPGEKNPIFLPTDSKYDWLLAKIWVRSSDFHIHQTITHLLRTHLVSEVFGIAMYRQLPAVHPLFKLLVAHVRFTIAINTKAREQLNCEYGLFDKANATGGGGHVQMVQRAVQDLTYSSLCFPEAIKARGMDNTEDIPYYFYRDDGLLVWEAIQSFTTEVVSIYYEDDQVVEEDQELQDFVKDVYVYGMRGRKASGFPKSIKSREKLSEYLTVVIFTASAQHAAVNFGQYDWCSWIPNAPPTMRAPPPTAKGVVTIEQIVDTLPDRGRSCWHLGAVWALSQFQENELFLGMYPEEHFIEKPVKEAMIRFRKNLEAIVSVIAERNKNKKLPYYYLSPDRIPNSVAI
Method: 5-Lipoxygenase Inhibitory Activity
10^7 RBL-1 cells (rat basophilic leukemia cells) were suspended in 0.5 ml of MCM (mast cell medium), and test solutions (made up of 0.5 ml of MCM, 50 μg of arachidonic acid, 10 μg of A 23187 (calcium ionophore, Eli Lilly) and 1 μM, 0.1 μM, 0.01 μM and0.001 μM as the final concentration of the quinone compound, respectively) prepared previously were added respectively to the suspension, followed by reaction at 37° C. for 20 minutes. After the conclusion of the reaction, 4 ml of ethanol and 1,4-dimethoxy-2-methyl-3-(3-methoxypropyl)naphthalene as the internal reference drug were added to the reaction solution, and the mixture was shaken thoroughly and allowed to stand at room temperature for 10 minutes. Then, it was centrifuged (2000 r.p.m.) for 10 minutes, and the supernatant fluid was separated and concentrated to dryness under reduced pressure. 0.5 Milliliter of 60% aqueous methanol was added to the concentrate, and 100 μl of the resulting solution was taken and subjected to high-performance liquid chromatography to determine amount of 5-HETE (5-hydroxyeicosatetraenoic acid). Determination of 5-HETE was made through measurement of an absorption at 237 nm with a UV absorption monitor.
The 5-HETE production inhibitory effect (IE) was expressed by [formula] wherein a is a peak height or peak area corrected by the peak for the internal reference when the quinone compound is not contained; b is a peak height or peak area corrected by the peak for the internal reference when the quinone compound is contained.

| SMILES | IC50 [nM] |
| --- | --- |
| CC1=C(C)C(=O)C(C(CCCCCCO)c2ccccc2)=C(C)C1=O (stereo not drawn) [Compound No. 45, 7-(3,5,6-trimethyl-1,4-benzoquinon-2-yl)-7-phenylheptanol] | 28 |
| CC1=C(C(CCCCC(=O)O)c2cccs2)C(=O)c2ccccc2C1=O (stereo not drawn) [Compound No. 13] | 80 |
| CC1=C(C(CCCCCCC(=O)O)c2ccccc2)C(=O)c2ccccc2C1=O (stereo not drawn) [Compound No. 14] | 200 |
| COC1=C(OC)C(=O)C(C(CCCCCCC(=O)O)c2ccccc2)=C(C)C1=O (stereo not drawn) [compound 18] | 200 |
| COC1=C(OC)C(=O)C(C(CCCCC(=O)O)c2ccccc2)=C(C)C1=O (stereo not drawn) [compound 16] | 32 |
| CC1=C(C(CCCCCCCCC(=O)O)c2ccccc2)C(=O)c2ccccc2C1=O (stereo not drawn) [compound 15] | 50 |
| CCOC(=O)CCCCC(C1=C(C)C(=O)c2ccccc2C1=O)c1ccccc1 (stereo not drawn) [Compound No. 5] | 30 |
| CCOC(=O)CCCCC(C1=C(C)C(=O)C(OC)=C(OC)C1=O)c1cccs1 (stereo not drawn) [Compound No. 6] | 28 |
| CC1=C(C)C(=O)C(C(CCCCCCCCC(=O)O)c2ccccc2)=C(C)C1=O (stereo not drawn) [Compound No. 11] | 34 |
| CCOC(=O)CCCCC(C1=C(C)C(=O)C(OC)=C(OC)C1=O)c1ccccc1 (stereo not drawn) [Compound No. 7] | 140 |
| CCOC(=O)CCCCC(C1=C(C)C(=O)c2ccccc2C1=O)c1cccs1 (stereo not drawn) [Compound No. 3] | 60 |
| CC1=C(C)C(=O)C(C(CCCCCCC(=O)O)c2ccccc2)=C(C)C1=O (stereo not drawn) [Compound No. 9, 8-phenyl-8-(3,5,6-trimethyl-1,4-benzoquinon-2-yl)octanoic acid] | 32 |
| COC1=C(OC)C(=O)C(C(CCCCC(=O)O)c2cccs2)=C(C)C1=O (stereo not drawn) [compound 17] | 200 |
| COC1=C(OC)C(=O)C(C(CCC(=O)O)c2ccccc2)=C(C)C1=O (stereo not drawn) [Compound No. 39] | 1300 |
| CC1=C(C)C(=O)C(C(CCCCC(=O)O)c2ccccc2)=C(C)C1=O (stereo not drawn) [Compound No. 10] | 34 |
| CC1=C(C)C(=O)C(C(CCCO)c2ccccc2)=C(C)C1=O (stereo not drawn) [compound 46] | 730 |
| COC1=C(OC)C(=O)C(C(CCCCCCO)c2ccccc2)=C(C)C1=O (stereo not drawn) [Compound No. 56, 7-(5,6-dimethoxy-3-methyl-1,4-benzoquinon-2-yl)-7-phenylheptanol] | 62 |
| CCOC(=O)CCCCC(C1=C(C)C(=O)C(C)=C(C)C1=O)c1cccs1 (stereo not drawn) [Compound No. 1, ethyl 6-(3,5,6-trimethyl-1,4-benzoquinon-2-yl)-6-(2-thienyl)hexanoate] | 80 |
| CC1=C(C)C(=O)C(C(CCC(=O)O)c2ccccc2)=C(C)C1=O (stereo not drawn) [Compound No. 35, 4-(3,5,6-trimethyl-1,4-benzoquinon-2-yl)-4-phenylbutyric acid] | 440 |
